Experiments:
TmCHMO = molecular target: T1, TmCHMO (Thermocrispum municipale, UniProt A0A1L1QK39); test: NADPH oxidation at […] nm; assay type: biochemical; conditions: 0.5 mM cyclohexanone, 100 μM NADPH, 10 μM FAD, 50 mM Tris-HCl, 30 °C
T1 sequence (A0A1L1QK39 1-541): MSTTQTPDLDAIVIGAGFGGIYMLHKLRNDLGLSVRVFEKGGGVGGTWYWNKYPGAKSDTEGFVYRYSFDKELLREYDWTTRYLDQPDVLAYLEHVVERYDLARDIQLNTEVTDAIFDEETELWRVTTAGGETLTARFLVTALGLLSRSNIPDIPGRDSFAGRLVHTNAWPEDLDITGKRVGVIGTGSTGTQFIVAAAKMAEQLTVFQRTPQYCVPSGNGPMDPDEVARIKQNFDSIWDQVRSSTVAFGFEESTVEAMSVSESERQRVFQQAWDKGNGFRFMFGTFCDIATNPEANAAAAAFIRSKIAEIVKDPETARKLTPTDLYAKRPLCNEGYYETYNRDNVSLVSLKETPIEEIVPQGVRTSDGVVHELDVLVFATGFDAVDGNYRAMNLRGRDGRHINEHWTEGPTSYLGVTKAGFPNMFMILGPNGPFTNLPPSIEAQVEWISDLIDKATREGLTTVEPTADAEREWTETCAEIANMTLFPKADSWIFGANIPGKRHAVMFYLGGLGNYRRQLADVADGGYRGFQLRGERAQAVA

CHMOAcineto = molecular target: T2, CHMOAcineto (Acinetobacter johnsonii, UniProt P12015); test: NADPH oxidation at […] nm; assay type: biochemical; conditions: 100 μM NADPH, 50 mM Tris-HCl, 30 °C
T2 construct: gene chnB

O=C1CCCCC1 = test: purified protein; conditions: 100 μM NADPH, 50 mM Tris-HCl, 30 °C

T2 sequence (P12015 2-543): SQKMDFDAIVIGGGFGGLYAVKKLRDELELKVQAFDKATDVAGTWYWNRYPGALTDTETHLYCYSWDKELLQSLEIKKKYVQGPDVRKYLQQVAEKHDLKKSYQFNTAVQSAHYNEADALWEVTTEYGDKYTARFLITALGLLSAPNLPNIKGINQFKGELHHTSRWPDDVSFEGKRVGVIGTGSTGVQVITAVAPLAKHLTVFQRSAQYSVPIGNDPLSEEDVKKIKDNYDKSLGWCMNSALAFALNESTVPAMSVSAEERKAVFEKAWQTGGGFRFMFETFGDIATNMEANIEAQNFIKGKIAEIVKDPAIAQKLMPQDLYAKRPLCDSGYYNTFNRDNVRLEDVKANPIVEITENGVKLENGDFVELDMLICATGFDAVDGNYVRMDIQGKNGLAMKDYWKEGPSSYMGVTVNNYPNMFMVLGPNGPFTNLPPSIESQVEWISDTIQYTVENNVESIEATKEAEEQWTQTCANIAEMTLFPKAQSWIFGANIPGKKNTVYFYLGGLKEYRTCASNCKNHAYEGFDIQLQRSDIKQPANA

**Q.** With `O=C1CCCCC1` [cyclohexanone] as the compound, how does the “NADPH oxidation at 340 nm” value (TmCHMO) read?
**A.** The activity was comparable to that of TmCHMO

**Q.** And the Km (CHMOAcineto)?
**A.** 6.74 ± 2 µM

**Q.** How did the Km (O=C1CCCCC1) turn out when BVMOFlava (Amycolatopsis thermoflava) was run?
**A.** 0.53 ± 0.1 µM

**Q.** What about the kcat (O=C1CCCCC1) of the same compound?
**A.** 1.5 ± 0.1 s⁻¹

— article PMC7187199, “Investigation of a New Type I Baeyer–Villiger Monooxygenase from Amycolatopsis thermoflava Revealed High Thermodynamic but Limited Kinetic Stability” (Chembiochem, 2020)
